Results reported in patent US6613875B1, “Cyclic peptide tube” (The Scripps Research Institute, priority 1993, dated 2003).
Square brackets hold non-standard residues; d marks the D form.

Assay: Proton transport (collapse of pH gradient) in vesicles with entrapped 5(6)-carboxyfluorescein
Format: biochemical
Conditions: vesicles pH 6.5 inside, pH 5.5 outside
Source text: The proton efflux is expressed in terms of the fractional change in the fluorescence intensity of vesicle entrapped 5(6)-carboxyfluorescein as a function of time (sampling time was at 0.3 seconds interval). Equal molar amounts of channel forming compounds were used in each experiment to allow direct comparisons of channel-mediated proton transport activity. The amount of added channel forming compounds in each experiment ranged from of 2 to 20 nmoles corresponding to approximately 150 channels per liposome for the lowest concentrations to 1100 channels per liposome for the highest amount of added compounds.
Formation of transmembrane channels was also inferred from its highly efficient proton transport activity. Vesicles were prepared having pH 6.5 inside and pH 5.5 in the outside bulk solution. The collapse of the imposed pH gradient in these vesicles, upon formation of the putative transmembrane channel structure, was studied by monitoring the fluorescence intensity of an entrapped pH-sensitive dye. (V.E. Carmichael et al, in J.Am. Chem. Soc. (1989), vol. 111, pages 767-769). […] Unilamellar vesicles were prepared by the reverse-phase evaporation using DPPC, OPPC, cholestrol in the ratio of 1:1:2 in a solution containing 5(6)-carboxyfluorescein (20 mM in phosphate/saline buffer: 137 mM NaCl, 2.6 mM KCl, 6.4 mM Na2HPO4, 1.4 mM KH2PO4, pH 6.5) according to the method of F. Szoka et al. in Proc. Natl. Acad. Sci. USA (1978), vol. 75, pages 4194-4198. […] Vesicles formed in this way are approximately 150 nanometer in diameter as determined by electron microscopy. […] To the cuvett, through an injector port, […] of the channel forming compounds in DMSO was added with continuous fluorescence monitoring at 520 nm (excitation at 470 nm). The observed data were then normalized for comparison into the fractional change in fluorescence ((I0−It)/(I0−I∞)) (V. E. Carmichael et al, in J.Am. Chem. Soc. (1989), vol. 111, pages 767-769)). […]

In the case of “cyclo[-(Trp-D-Leu)3-Gln-D-Leu-] (cyclo(W[dL]W[dL]W[dL]Q[dL]); SMILES CC(C)C[C@H]1NC(=O)[C@H](CCC(N)=O)NC(=O)[C@@H](CC(C)C)NC(=O)[C@H](Cc2c[nH]c3ccccc23)NC(=O)[C@@H](CC(C)C)NC(=O)[C@H](Cc2c[nH]c3ccccc23)NC(=O)[C@@H](CC(C)C)NC(=O)[C@H](Cc2c[nH]c3ccccc23)NC1=O) [eight residue ion channel forming cyclic peptide, approximately 7.5 Å pore]”, the “collapse of the imposed pH gradient upon addition of peptide” value is reported as “rapid collapse of the pH gradient”.
